In ChEMBL document CHEMBL1909046, “DrugMatrix in vitro pharmacology data”:
pIC50, pKi: −log10 of the molar value.

Key:
[1] = DRUGMATRIX: ATPase, Na+/K+ enzyme inhibition (substrate: ATP); assay type: tissue-based, Sus scrofa, Heart; details: Not Active = under 50% inhibition at 10 µM
[2] = DRUGMATRIX: beta-Lactamase enzyme inhibition (substrate: Nitrocefin); parameters: species or system Bacillus cereus; details: Not Active = under 50% inhibition at 10 µM
[3] = target: T1, 5-hydroxytryptamine receptor 2C (Homo sapiens, UniProt P28335); assay: DRUGMATRIX: Serotonin (5-Hydroxytryptamine) 5-HT2C radioligand binding (ligand: [3H] Mesulergine); assay type: cell membranes, CHO-K1, Membrane; details: Not Active = under 50% inhibition at 10 µM
T1 sequence (P28335 whole entry): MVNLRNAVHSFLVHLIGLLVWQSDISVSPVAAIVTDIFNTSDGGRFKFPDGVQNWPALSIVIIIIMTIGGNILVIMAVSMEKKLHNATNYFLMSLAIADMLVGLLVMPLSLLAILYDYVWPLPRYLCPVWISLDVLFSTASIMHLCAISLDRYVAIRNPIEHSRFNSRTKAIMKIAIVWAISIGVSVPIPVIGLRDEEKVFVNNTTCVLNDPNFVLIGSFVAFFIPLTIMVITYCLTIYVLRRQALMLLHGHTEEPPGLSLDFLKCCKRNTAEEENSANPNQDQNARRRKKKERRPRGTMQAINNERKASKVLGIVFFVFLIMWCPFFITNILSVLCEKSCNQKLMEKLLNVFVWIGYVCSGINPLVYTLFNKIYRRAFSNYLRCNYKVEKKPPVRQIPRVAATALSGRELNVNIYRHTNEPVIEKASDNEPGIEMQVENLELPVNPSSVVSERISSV

[4] = target: 5-hydroxytryptamine receptor 6 (Homo sapiens, UniProt P50406); assay type: cell membranes, HeLa, Membrane; note: in other assays of this panel Not Active means under 50% inhibition at 10 µM
[5] = DRUGMATRIX: Tumor Necrosis Factor (TNF), Non-Selective radioligand binding (ligand: [125I] TNF-alpha); assay type: cell membranes, Membrane; details: u-937; Not Active = under 50% inhibition at 10 µM
[6] = target: Prostaglandin G/H synthase 1 (Homo sapiens, UniProt P23219); assay: biochemical; assay type: tissue-based, Platelet; details: platelet;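 note: inhibition of COX-1 enzyme activity, with arachidonic acid supplied as substrate; in other assays of this panel Not Active means under 50% inhibition at 10 µM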
Chain of Prostaglandin G/H synthase 1 (P23219 whole entry): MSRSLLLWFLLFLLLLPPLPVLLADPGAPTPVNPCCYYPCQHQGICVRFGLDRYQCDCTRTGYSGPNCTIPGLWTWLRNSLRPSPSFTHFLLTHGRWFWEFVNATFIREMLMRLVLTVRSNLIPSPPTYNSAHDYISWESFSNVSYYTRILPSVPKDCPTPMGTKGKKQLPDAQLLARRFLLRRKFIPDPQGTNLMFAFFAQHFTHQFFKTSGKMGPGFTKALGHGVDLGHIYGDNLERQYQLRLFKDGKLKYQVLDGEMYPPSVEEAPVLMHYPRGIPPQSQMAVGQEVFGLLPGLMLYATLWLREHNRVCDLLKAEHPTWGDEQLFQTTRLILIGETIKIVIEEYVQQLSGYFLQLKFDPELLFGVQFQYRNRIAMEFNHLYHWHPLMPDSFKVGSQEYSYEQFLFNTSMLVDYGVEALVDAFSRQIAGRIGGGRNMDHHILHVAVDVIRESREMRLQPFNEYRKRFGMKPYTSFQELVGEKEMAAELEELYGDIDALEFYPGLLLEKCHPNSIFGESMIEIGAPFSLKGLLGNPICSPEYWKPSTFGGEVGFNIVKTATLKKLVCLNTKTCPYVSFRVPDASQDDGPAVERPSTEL

Chain of 5-hydroxytryptamine receptor 6 (P50406 whole entry): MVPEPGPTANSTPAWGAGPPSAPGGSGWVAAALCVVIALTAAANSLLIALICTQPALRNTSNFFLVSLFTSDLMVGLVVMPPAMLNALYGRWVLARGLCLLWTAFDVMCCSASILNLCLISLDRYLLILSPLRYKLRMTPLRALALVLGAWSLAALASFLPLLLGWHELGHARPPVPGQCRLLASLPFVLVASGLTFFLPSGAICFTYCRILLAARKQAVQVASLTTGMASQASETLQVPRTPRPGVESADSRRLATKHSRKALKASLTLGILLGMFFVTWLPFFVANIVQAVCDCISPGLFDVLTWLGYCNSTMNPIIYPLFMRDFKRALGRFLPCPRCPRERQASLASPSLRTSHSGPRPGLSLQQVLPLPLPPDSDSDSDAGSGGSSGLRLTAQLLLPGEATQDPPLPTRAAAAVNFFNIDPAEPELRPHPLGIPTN

Compound | IC50 [1] | Ki [1] | IC50 [2] | Ki [2] | IC50 ([3]; cho-k1) | IC50 ([4]; hela) | IC50 [5] | Ki [5] | IC50 [6] | Ki ([3]; cho-k1) | Ki ([4]; hela) | Ki [6] | pIC50 ([3]; read-out: IC50) | pKi ([3]; read-out: Ki) | pIC50 ([4]; read-out: IC50) | pKi ([4]; read-out: Ki)
C=C(C)C1(O)OC(=O)C=C1OC (stereo unspecified) [PENICILLIC ACID] | Not Active | Not Active | Not Active | Not Active | Not Active | Not Active | Not Active | Not Active | Not Active |  |  |  |  |  |  | 
CN(Cc1ccc(C(C)(C)C)cc1)Cc1cccc2ccccc12 [BUTENAFINE] | Not Active | Not Active | Not Active | Not Active | Not Active | Not Active | Not Active | Not Active | Not Active |  |  |  |  |  |  | 
NC(=O)N1c2ccccc2CCc2ccccc21 | Not Active | Not Active | Not Active | Not Active | Not Active | Not Active | Not Active | Not Active | Not Active |  |  |  |  |  |  | 
Cc1onc(-c2ccccc2Cl)c1C(=O)N[C@@H]1C(=O)N2[C@@H]1SC(C)(C)[C@@H]2C(=O)O [CLOXACILLIN] | Not Active | Not Active | Not Active | Not Active | Not Active | Not Active | Not Active | Not Active | Not Active |  |  |  |  |  |  | 
COc1ccc(C[C@H]2NC[C@H](O)[C@H]2OC(C)=O)cc1 [ANISOMYCIN] | Not Active | Not Active | Not Active | Not Active | Not Active | Not Active | Not Active | Not Active | Not Active | Not Active | Not Active | Not Active |  |  |  | 
CCn1cc(C(=O)O)c(=O)c2cc(F)c(N3CCNCC3)cc21 [NORFLOXACIN] | Not Active | Not Active | Not Active | Not Active | Not Active | Not Active | Not Active | Not Active | Not Active |  |  |  |  |  |  | 
CCC1(c2ccc(N)cc2)CCC(=O)NC1=O (stereo unspecified) [AMINOGLUTETHIMIDE] | Not Active | Not Active | Not Active | Not Active | Not Active | Not Active | Not Active | Not Active | Not Active |  |  |  |  |  |  | 
Cc1ccc(/N=C/N(C)/C=N/c2ccc(C)cc2C)c(C)c1 [AMITRAZ] | Not Active | Not Active | Not Active | Not Active | Not Active | Not Active | Not Active | Not Active | Not Active |  |  |  |  |  |  | 
CNNCc1ccc(C(=O)NC(C)C)cc1 [PROCARBAZINE] | Not Active | Not Active | Not Active | Not Active | Not Active | Not Active | Not Active | Not Active | Not Active |  |  |  |  |  |  | 
CN(C)c1nc(N(C)C)nc(N(C)C)n1 [ALTRETAMINE] | Not Active | Not Active | Not Active | Not Active | Not Active | Not Active | Not Active | Not Active | Not Active |  |  |  |  |  |  | 
OC(Cn1cncn1)(Cn1cncn1)c1ccc(F)cc1F [FLUCONAZOLE] | Not Active | Not Active | Not Active | Not Active | Not Active | Not Active | Not Active | Not Active | Not Active |  |  |  |  |  |  | 
C[C@]12CCC(=O)C=C1CC[C@@H]1[C@@H]2CC[C@@]2(C)[C@H]1CC[C@]2(C)O [METHYLTESTOSTERONE] | Not Active | Not Active | Not Active | Not Active | Not Active | Not Active | Not Active | Not Active | Not Active |  |  |  |  |  |  | 
O=c1oc2ccccc2c(O)c1Cc1c(O)c2ccccc2oc1=O [DICUMAROL] | Not Active | Not Active | Not Active | Not Active | Not Active | Not Active | Not Active | Not Active | Not Active |  |  |  |  |  |  | 
N=C(N)NCCN1CCCCCCC1 [GUANETHIDINE] | Not Active | Not Active | Not Active | Not Active | Not Active | Not Active | Not Active | Not Active | Not Active |  |  |  |  |  |  | 
Cc1cc(C2CCCCC2)n(O)c(=O)c1 [CICLOPIROX] | Not Active | Not Active | Not Active | Not Active | Not Active | Not Active | Not Active | Not Active | Not Active |  |  |  |  |  |  | 
CCOc1ccc(NC(C)=O)cc1 [PHENACETIN] | Not Active | Not Active | Not Active | Not Active | Not Active | Not Active | Not Active | Not Active | Not Active |  |  |  |  |  |  | 
NC1=NC(=O)C(c2ccccc2)O1 (stereo unspecified) [PEMOLINE] | Not Active | Not Active | Not Active | Not Active | Not Active | Not Active | Not Active | Not Active | Not Active |  |  |  |  |  |  | 
C[C@H](CCC(=O)O)[C@H]1CC[C@H]2[C@@H]3[C@H](O)C[C@@H]4C[C@H](O)CC[C@]4(C)[C@H]3C[C@H](O)[C@]12C [CHOLIC ACID] | Not Active | Not Active | Not Active | Not Active | Not Active | Not Active | Not Active | Not Active | Not Active |  |  |  |  |  |  | 
CC(C)C(Br)C(=O)NC(N)=O (stereo unspecified) [BROMISOVALUM] | Not Active | Not Active | Not Active | Not Active | Not Active | Not Active | Not Active | Not Active | Not Active |  |  |  |  |  |  | 
C[C@H]1c2cccc(O)c2C(=O)C2=C(O)[C@]3(O)C(=O)C(C(N)=O)=C(O)[C@@H](N(C)C)[C@@H]3[C@@H](O)[C@@H]21.O [DOXYCYCLINE] | Not Active | Not Active | Not Active | Not Active | Not Active | Not Active | Not Active | Not Active | Not Active |  |  |  |  |  |  | 
CNCCCN1c2ccccc2CCc2ccccc21 [DESIPRAMINE] | Not Active | Not Active | Not Active | Not Active | Not Active | Not Active | Not Active | Not Active | Not Active |  |  |  |  |  |  | 
C[C@H](CS)C(=O)N1CCC[C@H]1C(=O)O [CAPTOPRIL] | Not Active | Not Active | Not Active | Not Active | Not Active | Not Active | Not Active | Not Active | Not Active |  |  |  |  |  |  | 
CC(O)CO (stereo unspecified) [PROPYLENE GLYCOL] | Not Active | Not Active | Not Active | Not Active | Not Active | Not Active | Not Active | Not Active | Not Active |  |  |  |  |  |  | 
Cc1c(O)c(=O)ccn1C [DEFERIPRONE] | Not Active | Not Active | Not Active | Not Active | Not Active | Not Active | Not Active | Not Active | Not Active |  |  |  |  |  |  | 
CC(C)[C@@]1(NC(=O)[C@@H]2C[C@@H]3c4cccc5[nH]cc(c45)C[C@H]3N(C)C2)O[C@@]2(O)[C@@H]3CCCN3C(=O)[C@H](Cc3ccccc3)N2C1=O.CS(=O)(=O)O [DIHYDROERGOCRISTINE MESYLATE] | Not Active | Not Active | Not Active | Not Active |  |  | Not Active | Not Active | Not Active |  |  |  | 6.62 | 6.90 | 7.38 | 7.72
C1CCC(C(CC2CCCCN2)C2CCCCC2)CC1 (stereo unspecified) [PERHEXILINE] | Not Active | Not Active | Not Active | Not Active | Not Active | Not Active | Not Active | Not Active | Not Active |  |  |  |  |  |  | 
c1ccc2c(c1)c1cccc3ccc4cccc2c4c31 [BENZO[E]PYRENE] | Not Active | Not Active | Not Active | Not Active | Not Active | Not Active | Not Active | Not Active | Not Active |  |  |  |  |  |  | 
C[C@]12CC[C@@H]3c4ccc(O)cc4CC[C@H]3[C@@H]1CCC2=O [ESTRONE] | Not Active | Not Active | Not Active | Not Active | Not Active | Not Active | Not Active | Not Active | Not Active |  |  |  |  |  |  | 
CNCCc1ccccn1 [BETAHISTINE] | Not Active | Not Active | Not Active | Not Active | Not Active | Not Active | Not Active | Not Active | Not Active |  |  |  |  |  |  | 
